In brackets after ≈: the same amount, converted by molar mass. Where two headings read alike, the source gives them in different places.
Assays:
S. aureus A-9537 = assay: In vitro MIC, tube dilution; format: cell-based; settings: Staphylococcus aureus, overnight incubation at 37° C., additional data table
P. aeruginosa A-9843A = assay: In vitro MIC, tube dilution; format: cell-based; settings: Pseudomonas aeruginosa, A9843A, Nutrient Broth, overnight incubation at 37° C., additional data table
S. aureus A-9606 = assay: Protective effect in the intramuscular treatment of infected mice (PD50); format: in vivo; settings: Staphylococcus aureus, A9606, im; mice infected i.p. (Ex. 2: 2 × 10^9 organisms; Ex. 4 and 5: ~9 × 10^7), treated i.m. 0 and 2 h postinfection; read-out: PD50/treatment, S. aureus A-9606
Method: The PD50 (dose in mg/kg required to give protection to 50% of the infected mice) is indicated.
were treated i.m. with drugs 0 and 2 h postinfection.

[1] = test system: S. aureus A-9606 (Pen-res.); assay: In vitro MIC, tube dilution; format: cell-based; settings: Staphylococcus aureus, Nutrient Broth, overnight incubation at 37° C., additional data table, read-out: MIC S. aureus (Pen-res.) A-9606
S. marcescens A20019 = assay: In vitro MIC, tube dilution; format: cell-based; settings: tube dilution, Nutrient Broth, overnight incubation at 37° C.; additional data table
S. pneumoniae A-9585 = assay: In vitro MIC, tube dilution; format: cell-based; settings: Streptococcus pneumoniae, A9585, Nutrient Broth, overnight incubation at 37° C., additional data table
E. cloacae A-9656 = assay: In vitro MIC, tube dilution; format: cell-based; settings: Enterobacter cloacae, A9656, tube dilution, Nutrient Broth, overnight incubation at 37° C.; additional data table
E. cloacae A-9659 = assay: In vitro MIC, tube dilution; format: cell-based; settings: tube dilution, Nutrient Broth, overnight incubation at 37° C.; additional data table
Description: N-formimidoyl thienamycin was included as a comparison compound.

[2] = Half-life in phosphate buffer solution; format: physicochemical; settings: 0.065 M, pH 7.4 phosphate buffer, 37° C.; listed as Fraction B
Method: A solution of para-nitrobenzyl 3-[2-(N-methylthiomorpholinium diphenylphosphate)ethylthio]-6α-[1'-(R)-hydroxyethyl]-7-oxo-1-azabicyclo[3.2.0]hept-2-ene-2-carboxylate (1.31 g, 1.76 mmol) in 0.1 M pH 7.4 phosphate buffer (48.8 mL), tetrahydrofuran (20 mL) and diethyl ether (20 mL) was hydrogenated over 10% pd/C (1.5 g) in a Parr shaker for 1 h at 40 psi. The reaction mixture was diluted with diethyl ether (40 mL) and the phases were separated. The organic phase was washed with water (2×5 mL). The aqueous phases were combined, filtered through a #52 hardened filter paper, washed with diethyl ether (2×20 mL) and pumped under vacuum. The aqueous solution was poured on a silica gel reverse phase column and the desired carbapenem was eluted with 5% acetonitrile-water.
To a solution of p-nitrobenzyl (5R,6S)-3-[2-(1-methylmorpholino)ethylthio]-6-[(R)-1-hydroxyethyl]-7-oxo-1-azabicyclo[3.2.0]hept-2-ene-2-carboxylate diphenylphosphate (0.360 g, 0.49 mmol) in 13 mL of phosphate buffer (0.05 M pH 7.4) was added 0.36 g of 10% palladium-on-charcoal, 20 mL of tetrahydrofuran and 20 mL of diethyl ether. This mixture was hydrogenated (Parr) at 32 psi for 1 h. The mixture was filtered through Celite and the filter pad was washed with H2 O and diethyl ether. The aqueous phase was separated and the pH was adjusted to 7.0 with additional pH 7.4 phosphate buffer. After removing residual organic solvents in vacuo the aqueous solution was applied to a C18 reverse-phase column.
To a solution of (5R,6S)paranitrobenzyl 3-[2-(1,4-dimethyl-1-piperazinium)ethylthio]-6-[1-(R)-hydroxyethyl]-7-oxo- 1-azabicyclo[3.2.0]hept-2-ene-2-carboxylate diphenylphosphate (0.47 g, 0.623 mmol) in wet tetrahydrofuran (25 mL) was added diethyl ether (25 mL), potassium phosphate monobasic-sodium hydroxide buffer (13 mL, pH 7.22) and 10% palladium on charcoal (0.47 g). The resulting mixture was hydrogenated at 23° C. under 40 psi for 1 h. The two layers were separated and the organic layer was extracted with water (2×7 mL).
To a cold (-10° C.) solution of (5R,6S)-3-[2 -(N-methyl-thiomorpholinium)ethylthio]-6-[1-(R)-hydroxyethyl]-7-oxo-1-azabicyclo(3.2.0)-hept-2-ene-2-carboxylate (608 mg, 1.65 mmol) in a 1:1 mixture of acetonitrile-water (9 mL) was added m-chloroperbenzoic acid (334.8 mg, 1.65 mmol) in small portion over a 1 hour period. The mixture was then diluted with water (15 mL) and washed with diethyl ether (3×15 mL).
A mixture of (5R,6S) paranitrobenzyl 3-[2-(1,4,4-trimethyl-1-piperazinium)ethylthio]-6-[1R-hydroxyethyl]-7-oxo- 1-azabicyclo(3.2.0)hept-2-ene-2-carboxylate bischloride (0.40 g, 0.68 mmol), phosphate buffer (30 mL, 0.05M, pH 7.0), tetrahydrofuran (10 mL), ether (30 mL) and 10% palladium on charcoal (0.40 g) was hydrogenated at 23° C. under 35 psi for 1 h. The two phases were separated. The organic phase was extracted with water (10 mL).

E. coli A15119 = assay: In vitro MIC, tube dilution; format: cell-based; settings: tube dilution, Nutrient Broth, overnight incubation at 37° C.; additional data table
P. aeruginosa A21213 = assay: In vitro MIC, tube dilution; format: cell-based; settings: Pseudomonas aeruginosa, A21213, tube dilution, Nutrient Broth, overnight incubation at 37° C.; additional data table
P. morganii A15153 = assay: In vitro MIC, tube dilution; format: cell-based; settings: tube dilution, Nutrient Broth, overnight incubation at 37° C.; additional data table
S. pyogenes A-9604 = assay: In vitro MIC, tube dilution; format: cell-based; settings: Streptococcus pyogenes, A9604, tube dilution, Nutrient Broth, overnight incubation at 37° C.; additional data table
[3] = Blood levels in mice after intramuscular administration; format: in vivo; settings: mouse, intramuscular dose of 20 mg/kg; 20 mg/kg
Description: Compounds were solubilized in 0.1 M phosphate buffer pH 7. Values are fro
a single test; 4 mice used per compound.
*t1/2 refers to halflife in minutes
**AUC refers to the area under the blood concentrationtime curve
(§1) Also shown is the urinary recovery in the mice.
Compounds were solubilized in 0.1 M phosphate buffer, pH 7.
Values based on a single test; 4 mice per compound.
*T1/2 refers to halflife in minutes

K. pneumoniae A-9664 = assay: In vitro MIC, tube dilution; format: cell-based; settings: tube dilution, Nutrient Broth, overnight incubation at 37° C.; additional data table
S. faecalis A20688 = assay: In vitro MIC, tube dilution; format: cell-based; settings: tube dilution, Nutrient Broth, overnight incubation at 37° C.; additional data table
P. mirabilis A-9900 = assay: In vitro MIC, tube dilution; format: cell-based; settings: Proteus mirabilis, A9900, tube dilution, Nutrient Broth, overnight incubation at 37° C.; additional data table
P. rettgeri A22424 = assay: In vitro MIC, tube dilution; format: cell-based; settings: tube dilution, Nutrient Broth, overnight incubation at 37° C.; additional data table
[4] = Urinary recovery after intramuscular administration to mice; format: in vivo; settings: mouse, intramuscular dose of 20 mg/kg, 0-6 hour collection, 360 min
Method: Compounds were solubilized in 0.1 M phosphate buffer pH 7. Values are from a single test; 4 mice per compound.
as §1
***Recovery based on 0-6 hour collection

P. vulgaris A21559 = assay: In vitro MIC, tube dilution; format: cell-based; settings: tube dilution, Nutrient Broth, overnight incubation at 37° C.; additional data table
E. coli A20341-1 = assay: In vitro MIC, tube dilution; format: cell-based; settings: tube dilution, Nutrient Broth, overnight incubation at 37° C.; additional data table
K. pneumoniae A20468 = assay: In vitro MIC, tube dilution; format: cell-based; settings: tube dilution, Nutrient Broth, overnight incubation at 37° C.; additional data table

SMILES: C[C@@H](O)[C@H]1C(=O)N2C(C(=O)[O-])=C(SCC[N+]3(C)CC[S+]([O-])CC3)C[C@H]12 (single isomer, unassigned) [Ex. 5 comp. B]
- MIC (S. aureus A-9537; A9537, 50% serum, tube dilution, read-out: MIC S. aureus-50% serum A-9537): 0.06 µg/mL (≈ 0.154 µM)
- MIC (S. aureus A-9537; A9537, tube dilution, Nutrient Broth, read-out: MIC S. aureus A-9537): 0.03 µg/mL (≈ 0.0772 µM)
- MIC (P. aeruginosa A-9843A): 63 µg/mL (≈ 162 µM)
- ED50 (S. aureus A-9606): 0.39 mg/kg
- MIC [1]: 0.06 µg/mL (≈ 0.154 µM)
- MIC S. marcescens A20019 (S. marcescens A20019): 0.25 µg/mL (≈ 0.643 µM)
- MIC (S. pneumoniae A-9585): 0.004 µg/mL (≈ 0.0103 µM)
- MIC (E. cloacae A-9656): 0.25 µg/mL (≈ 0.643 µM)
- MIC E. cloacae A-9659 (E. cloacae A-9659): 0.5 µg/mL (≈ 1.29 µM)
- T 1/2 (solution stability) [2]: 10.75 h
- MIC E. coli A15119 (E. coli A15119): 0.13 µg/mL (≈ 0.335 µM)
- MIC (P. aeruginosa A21213): 32 µg/mL (≈ 82.4 µM)
- MIC M. morganii A15153 (P. morganii A15153): 0.5 µg/mL (≈ 1.29 µM)
- MIC (S. pyogenes A-9604): 0.008 µg/mL (≈ 0.0206 µM)
- Blood AUC [3]: 4600 ng·h/mL
- Blood Cmax [3]: 12600 ng/mL
- Blood T1/2 [3]: 0.167 h
- MIC K. pneumoniae A-9664 (K. pneumoniae A-9664): 0.25 µg/mL (≈ 0.643 µM)
- MIC S. faecalis A20688 (S. faecalis A20688): 1 µg/mL (≈ 2.57 µM)
- MIC (P. mirabilis A-9900): 0.25 µg/mL (≈ 0.643 µM)
- MIC P. rettgeri A22424 (P. rettgeri A22424): 1 µg/mL (≈ 2.57 µM)
- Urine Recovery [4]: 15 ± 3%
- MIC P. vulgaris A21559 (P. vulgaris A21559): 0.25 µg/mL (≈ 0.643 µM)
- MIC E. coli A20341-1 (E. coli A20341-1): 0.13 µg/mL (≈ 0.335 µM)
- MIC K. pneumoniae A20468 (K. pneumoniae A20468): 0.5 µg/mL (≈ 1.29 µM)

— patent publication US4536335A, “Carbapenem antibiotics” (Bristol-Myers Company, priority 1983, dated 1985)
